Biological target: F508del-CFTR (Homo sapiens, UniProt P13569, DEL508-508)
Assay: Halide-sensitive YFP quenching assay in U2OS-F508del-CFTR-YFP cells
Format: cell-based
Design: host or cells: U2OS (PathHunter U2OS-F508del-CFTR MEM-EA)
Details: overnight treatment; acute forskolin and IVA 2 nM
Method: U2OS-F508del-CFTR cells expressing Topaz-YFP F46L/H148Q/I152L were seeded at 20,000 cells per well into 384-well black clear-bottom plates in 40 μl per well growth medium (Mc COY’s 5A, Gibco, 10% FBS, penicillin/streptomycin), containing the various CFTR correctors at the indicated concentrations. The cells were coincubated with the compounds for 24 hours (37°C, 5% CO2). The next day, plates were washed twice with PBS^+ (55 μl per well; PBS containing 0.9 mM Ca^2+ and 0.5 mM Mg^2+). PBS^+ was fully removed, and cells were supplemented with 15 μl PBS^+. Then, 5 μl of 4× concentrated stocks of IVA or vehicle in dilution buffer [PBS^+, 0.1 μM forskolin, and 0.2% bovine serum albumin (fatty acid free) (pH 7.4)] were added and incubated for 30 min in the dark. For experiments with I-172 (Sigma- Aldrich), the inhibitor was added to the mix with either IVA or vehicle to reach a final concentration in cells of 20 μM. Then, plates were transferred to the FLIPR Tetra (fluorescence imaging plate reader; Molecular Devices: excitation: 470 to 495 nm; emission: 526 to 585 nm), baseline fluorescence reading of the YFP signal was performed for 6 s (10 × 0.6 s intervals) after which 25 μl of iodide buffer [137 mM NaI, 2.7 mM KCl, 1.5 mM KH2PO4, 8.1 mM Na2HPO4, 1 mM CaCl2, and 0.5 mM MgCl2 (pH 7.4)] was added, and fluorescence reading was continued for 70 s (50 × 0.6 s intervals; 20 x 2 s intervals) to assess YFP quenching through CFTR-mediated iodide influx. For analysis, fluorescence traces were aligned and normalized at the last time point before iodide addition (normalized fluorescence = 1). Normalized fluorescence values obtained 20 s after the beginning of the assay were used to assess the degree of YFP quenching, i.e., CFTR function (see fig. S1J). […] Then, plates were read and analyzed as above. […] Then, plates were transferred to the FLIPR Tetra and read and analyzed as above.

Chain of F508del-CFTR (P13569 with tags, fused parts or gaps DEL508-508): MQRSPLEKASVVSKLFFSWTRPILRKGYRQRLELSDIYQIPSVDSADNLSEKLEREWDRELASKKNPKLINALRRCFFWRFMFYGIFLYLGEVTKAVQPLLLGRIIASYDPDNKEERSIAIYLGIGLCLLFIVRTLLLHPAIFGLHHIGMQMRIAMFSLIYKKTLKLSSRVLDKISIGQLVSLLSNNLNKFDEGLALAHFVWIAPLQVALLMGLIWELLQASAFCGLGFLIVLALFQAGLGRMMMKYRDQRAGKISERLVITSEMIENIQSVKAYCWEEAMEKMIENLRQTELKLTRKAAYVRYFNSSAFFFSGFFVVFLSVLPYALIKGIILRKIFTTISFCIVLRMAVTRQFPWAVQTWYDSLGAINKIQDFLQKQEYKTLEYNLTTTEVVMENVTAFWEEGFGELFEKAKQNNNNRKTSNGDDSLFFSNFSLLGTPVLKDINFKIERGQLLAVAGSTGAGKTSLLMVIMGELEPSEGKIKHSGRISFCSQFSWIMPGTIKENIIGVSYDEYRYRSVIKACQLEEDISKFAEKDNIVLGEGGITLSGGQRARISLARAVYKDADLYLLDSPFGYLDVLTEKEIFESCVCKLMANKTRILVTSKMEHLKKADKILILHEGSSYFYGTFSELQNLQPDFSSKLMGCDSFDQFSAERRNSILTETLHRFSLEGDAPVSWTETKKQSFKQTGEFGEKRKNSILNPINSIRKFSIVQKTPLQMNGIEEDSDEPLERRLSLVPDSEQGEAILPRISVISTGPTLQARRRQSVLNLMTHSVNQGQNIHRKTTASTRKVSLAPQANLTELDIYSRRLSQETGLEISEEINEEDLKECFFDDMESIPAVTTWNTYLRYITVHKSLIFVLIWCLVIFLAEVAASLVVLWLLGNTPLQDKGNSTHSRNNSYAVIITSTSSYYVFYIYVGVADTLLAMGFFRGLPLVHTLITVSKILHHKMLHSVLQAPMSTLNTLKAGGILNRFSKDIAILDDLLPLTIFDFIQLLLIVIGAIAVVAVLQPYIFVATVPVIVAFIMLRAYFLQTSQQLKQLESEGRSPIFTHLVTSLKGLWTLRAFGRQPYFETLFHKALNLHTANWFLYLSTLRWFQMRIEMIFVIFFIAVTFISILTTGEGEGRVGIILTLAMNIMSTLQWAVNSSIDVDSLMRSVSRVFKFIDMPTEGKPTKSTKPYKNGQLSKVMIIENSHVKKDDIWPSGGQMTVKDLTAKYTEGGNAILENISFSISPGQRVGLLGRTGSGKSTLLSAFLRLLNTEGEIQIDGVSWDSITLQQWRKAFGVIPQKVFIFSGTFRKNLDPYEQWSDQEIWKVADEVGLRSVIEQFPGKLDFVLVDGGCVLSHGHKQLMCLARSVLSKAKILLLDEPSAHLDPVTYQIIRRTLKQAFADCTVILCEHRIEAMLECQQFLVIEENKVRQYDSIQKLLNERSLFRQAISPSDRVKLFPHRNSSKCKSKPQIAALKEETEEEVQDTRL

F508del-CFTR function (YFP quenching): strongly increased F508del-CFTR function
SMILES: COc1cc(CCNC(=O)C2CC(=O)N(C)C(CC(C)C)C(=O)N3CCCCC3C(=O)NC(Cc3ccccc3)COc3ccc4ncc(F)cc4c3C(=O)N2)on1 (stereo not shown) [IDOR-3]
